In patent US9540299B2, “MTOR-independent activator of TFEB for autophagy enhancement and uses thereof” (Hong Kong Baptist University, priority 2015, dated 2017):

What was measured:
[1] = tested on: MTOR pathway; assay: Effects on MTOR pathway: phosphorylation by western blot in N2a cells; format: cell-based, mouse; conditions: for phosphorylation of RPS6KB1/p70S6K, MTOR and AKT: 12 h, curcumin 10 μM, analogs 1 μM; for phosphorylation of RPS6KB1/p70S6K and MTOR: 12 hours
Method: N2a cells were treated with curcumin (Cur, 10 μM), A2, B3 and C1 (1 μM) for 12 h. Torin 1 (1 μM) treatment for 2 h was used as a positive control. […] FIG. 3B is a bar chart showing the expression of phosphorylated (p−) and total RPS6KB1/P70S6K, MTOR and AKT. Data are presented as the mean±SD from three independent experiments. *p<0.05 vs. the control (0.1% DMSO).
N2a cells are treated with E2, E3 and E4 (1 μM) for 12 hours. Torin 1 (1 μM) treatment for 2 hours is used as a positive control. The expression of phosphorylated (p−) and total RPS6KB1/P70S6K and MTOR are shown in Western blotting (FIG. 15A). The phosphorylation of RPS6KB1 and MTOR levels are also quantified (FIG. 15B). Data are presented as the mean±SD from three independent experiments. *p<0.05 vs. the control (0.1% DMSO).
N2a cells are treated with different concentrations of E4 (0-1 μM) and Torin 1 (1 μM) for 6 hours. The expression of phosphorylated (p−) and MTOR are detected by Western blotting (FIG. 23A). The phosphorylation of MTOR levels are also quantified (FIG. 23B). Data are presented as the mean±SD from three independent experiments. *p<0.05 vs. the control (0.1% DMSO).
N2a cells are treated with E4 (1 μM) for indicated times and Torin 1 (1 μM) for 6 hours. The expression of phosphorylated (p−) and total RPS6KB1/P70S6K and MTOR are detected by Western blotting (FIG. 24A). The phosphorylation of RPS6KB1 and MTOR levels are also quantified (FIG. 24B). Data are presented as the mean±SD from three independent experiments. *p<0.05 vs. the control (0.1% DMSO).
(§1) N2a, Hela and Hela cells stably expressing 3×-Flag-TFEB are cultured in DMEM supplemented with 10% FBS. SH-SY5Y cells are cultured in DMEM/F12 supplemented with 10% FBS. For drug treatment, the full medium is replaced by fresh Opti-MEM I and then the compounds (in 0.1% DMSO) are added to the cells and incubated for 12 h. Inducible PC12 cells overexpressing SNCA (WT and A53T) (a kind gift from Prof. David C. Rubinsztein at Cambridge University) are grown in DMEM supplemented with 10% horse serum, 5% FBS, 50 μg/ml G418, and 150 μg/ml hygromycin B at 37° C., 10% CO2. Cells are treated with 2 μg/ml doxycycline (Dox) for 24 h to induce SNCA expression. The full medium is changed to Opti-MEM I containing the testing compounds for another 48 h.
(§2) Cells are lysed on ice in 1× Lysis Buffer (9803, Life Technologies) with complete protease inhibitor mixture (04693124001, Roche Applied Science). Animal tissues are homogenized in nine volumes of ice-cold PBS supplemented with protease inhibitors. Cytosolic and nuclear fractions are isolated using protocols similar to those described previously. Anti-Flag or TFEB antibody is added to the whole cell lysates and Dynabeads® Protein G (10003D, Life Technologies) is used for immunoprecipitation. Proteins are separated by 10-15% SDS-PAGE, transferred, and blotted with the antibodies described. The blots are then incubated with secondary antibodies or the Clean-Blot IP Detection Reagent (21230, Thermo Scientific) at room temperature for 1 h. The protein signals are detected by ECL kit (32106, Pierce) and quantified using ImageJ software.
N2a and HeLa cells are cultured in DMEM supplemented with 10% FBS. HeLa cells stably expressing 3×-Flag-TFEB are maintained in DMEM supplemented with 10% FBS and 500 μg/mL G418. For drug treatment, the full medium is replaced by fresh Opti-MEM I containing the compounds (in 0.1% DMSO) and incubated for the indicated time periods.
Cells are lysed on ice in 1× Lysis Buffer (9803, Life Technologies) with complete protease inhibitor mixture (04693124001, Roche Applied Science) and phosphatase inhibitor (B15001, Biotool). Cytosolic and nuclear fractions are isolated using protocols similar to those described previously. Proteins are separated by 10-15% SDS-PAGE, transferred, and blotted with the antibodies described. The blots are then incubated with primary and secondary antibodies. […]

[2] = tested on: wild-type (WT) SNCA; assay: Degradation of HA-tagged wild-type SNCA in inducible PC12 cells; format: cell-based; conditions: for degradation of SNCA WT: Dox 24 h then 48 h, curcumin 10 μM, analogs 1 μM
Method: (§3) Expression and intensity of HA-tagged wild-type (WT) or A53T mutant SNCA in inducible PC12 cells are treated with doxycycline (Dox, 2 μg/ml) for 24 h, and then treated with curcumin (10 μM), A2, B3 and C1 (1 μM) for another 48 h (A, C) in the presence or absence of chloroquine (CQ, 20 μM) and wortmannin (WM, 1 μM) (B, D). The expression of HA-SNCA is determined by western blots and quantified from three independent experiments. Corynoxine B (Cory B, 25 μM) is used as a positive control. Relative intensity is normalized to that of ACTB/β-actin. Data are presented as the mean±SD from three independent experiments. *p<0.05 vs. the control (0.1% DMSO).
as §1, §2
(§4) Inducible PC12 cells are treated with doxycycline (Dox, 2 μg/ml) for 24 h to induce the expression of HA-tagged wild-type (WT) or A53T mutant SNCA, and then treated with curcumin (10 μM), A2, B3 and C1 (1 μM) for another 48 h (FIGS. 8 A, C) in the presence or absence of chloroquine (CQ, 20 μM) and wortmannin (WM, 1 μM) (FIGS. 8 B, D). The expression of HA-SNCA is determined by western blots and quantified from three independent experiments. Corynoxine B (Cory B, 25 μM) is used as a positive control. […] Corynoxine B (Cory B) is used as a positive control.

[3] = tested on: A53T mutant SNCA; assay: Degradation of HA-tagged A53T mutant SNCA in inducible PC12 cells; format: cell-based; conditions: for degradation of SNCA A53T: Dox 24 h then 48 h, curcumin 10 μM, analogs 1 μM
Method: as §3, §1, §2, §4

Compound | phosphorylation of RPS6KB1/p70S6K, MTOR and AKT [1] | degradation of SNCA WT ([2]; inducible PC12 cells) | degradation of SNCA A53T ([3]; inducible PC12 cells) | phosphorylation of RPS6KB1/p70S6K and MTOR ([1]; 1 μM) | further results
O=C(/C=C/c1cccc(C(F)(F)F)c1)/C=C/c1cccc(C(F)(F)F)c1 [A2, 1,5-bis(3-(trifluoromethyl)phenyl)penta-1,4-dien-3-one] | inhibit | significantly degrade | significantly degrade | – | –
O=C(/C=C/c1ccc(O)cc1)/C=C/c1ccc(O)cc1 [B3, 1,5-bis(4-hydroxyphenyl)penta-1,4-dien-3-one] | inhibit | significantly degrade | significantly degrade | – | –
COc1ccccc1/C=C/C(=O)/C=C/c1ccccc1OC [C1, 1,5-bis(2-methoxyphenyl)penta-1,4-dien-3-one] | significantly promotes | significantly degrade | significantly degrade | – | activity in degrading SNCA in presence of wortmannin (WM) or CQ ([2]; SNCA WT, WM 1 μM, CQ 20 μM, 1 μM compound): significantly blocked; SNCA clearance, comparison among compounds ([2]; inducible PC12 cells, SNCA WT): best effects; activity in degrading SNCA in presence of wortmannin (WM) or CQ ([3]; SNCA A53T, WM 1 μM, CQ 20 μM, 1 μM compound): significantly blocked; SNCA clearance, comparison among compounds ([3]; inducible PC12 cells, SNCA A53T): best effects
O=C(/C=C/c1ccccc1Cl)/C=C/c1ccccc1Cl [E2] | – | – | – | significantly inhibit | –
O=C(/C=C/c1ccccc1Br)/C=C/c1ccccc1Br [E3] | – | – | – | significantly inhibit | –
O=C(/C=C/c1ccccc1I)/C=C/c1ccccc1I [E4] | – | – | – | significantly inhibit | phosphorylation of MTOR, dose-dependent ([1]; 0-1 μM, 6 hours, dose-dependent manner): significantly inhibits; phosphorylation of both MTOR and p70S6K, time-dependent ([1]; 1 μM, 0-6 hours, time-dependent manner): inhibits
COc1cc(/C=C/C(=O)CC(=O)/C=C/c2ccc(O)c(OC)c2)ccc1O [curcumin, Curcumin, reference compound] | inhibit | no effect | promotes the degradation | – | –
